For data set [1], the target named is human 5-HT2A receptor (Homo sapiens (Human), UniProt P28223). The data set is described as follows: Radioligand binding ([3H]-ketanserin) to cloned receptors expressed in HEK-293 EBNA cells. The conditions noted are these: HEK293 EBNA cell membranes expressing human 5-HT2A. The method, then:
(§1) HEK293 EBNA cells were transiently transfected with expression plasmids encoding for the human D2 or D3 or for the human 5-HT2A receptor, respectively. The cells were harvested 48 h post-transfection, washed three times with cold PBS and stored at −80° C. prior to use. The pellet was suspended in cold 50 mM Tris-HCl buffer comprising 10 mM EDTA (pH 7.4) and was homogenized with a Polytron (Kinematica AG, Basel, Switzerland) for 20-30 sec at 12.000 rpm. After centrifugation at 48.000×g for 30 min at 4° C., the pellet was resuspended in cold 10 mM Tris-HCl buffer comprising 0.1 mM EDTA (pH 7.4), homogenized, and centrifuged as above. This pellet was further resuspended in a smaller volume of ice cold 10 mM Tris-HCl buffer comprising 0.1 mM EDTA (pH 7.4) and homogenized with a Polytron for 20-30 sec at 12.000 rpm. The protein content of this homogenate was determined with the Bio-Rad (Bradford) Protein Assay (Biorad Laboratories GmbH, München, Germany) according to the instructions of the manufacturer using gamma globulin as the standard. This homogenate was stored at −80° C. in aliquots and thawed immediately prior to use.
(§2) Aliquots of membrane preparations were thawed at RT, resupended in assay buffer (D2, D3: 50 mM Tris-HCl, 120 mM NaCl, 5 mM MgCl2, 1 mM EDTA, 5 mM KCl, 1.5 mM CaCl2, pH=7.4; 5-HT2A: 50 mM Tris-HCl, 10 mM MgCl2, 1 mM EGTA, pH=7.4), homogenized with a Polytron for 20-30 sec at 12.000 rpm and adjusted to a final concentration of approximately 7.5 μg protein/well (D2, D3) and 15 μg protein/well (5-HT2A), respectively.
(§3) The binding affinity (Ki) of the compounds was determined using radioligand binding. Membranes were incubated in a total volume of 200 μl with a fixed concentration of radioligand (final concentration approximately 0.7 nM [^3H]-spiperone for D2, 0.5 nM [^3H]-spiperone for D3, and 1.1 nM [^3H]-ketanserin for 5-HT2A) and ten concentrations of test compound in ranging between 10 μM-0.1 nM for 1 h at RT. At the end of the incubation, the reaction mixtures were filtered on to unifilter 96-well white microplates with bonded GF/C filters (Packard BioScience, Zürich, Switzerland; preincubated for 1 h in 0.1% polyethylenimine (PEI) in assay buffer) with a Filtermate 196 harvester (Packard BioScience) and washed 3 times with cold assay buffer. The nonspecific binding was determined with equally composed reaction mixtures in the presence of 10 μM unlabelled spiperone. Per well 45 μl of Microscint 40 (Perkin Elmer, Schwerzenbach, Switzerland) was added, plates for sealed, shaken for 20 min and counted for 3 min on a Topcount Microplate Scintillation Counter (Can berra Packard SA, Zürich, Switzerland) with quenching correction.
(§4) The CPM value for each duplicate of a concentration of competing compound was averaged (y1), then the % specific binding was calculated according to the equation (((y1−non-specific)/(total binding−non-specific))×100). Graphs were plotted with the % specific binding using XLfit, a curve fitting program that iteratively plots the data using Levenberg-Marquardt algorithm. The single site competition analysis equation used was y=A+((B−A)/(1+((x/C)D))), where y is the % specific binding, A is the minimum y, B is the maximum y, C is the IC50, x is the log 10 of the concentration of the competing compound and D is the slope of the curve (the Hill Coefficient). […] The affinity constant (Ki) was calculated using the Cheng-Prusoff equation Ki=(IC50/1+([L]/Kd), where [L] is the concentration of radioligand and Kd is the dissociation constant of the radioligand at the receptor as determined by the saturation isotherm.

Data set [2] concerns the target human D3 receptor (Homo sapiens (Human), UniProt P35462). Kind of data set: Radioligand binding ([3H]-spiperone) to cloned receptors expressed in HEK-293 EBNA cells. The conditions noted are these: HEK293 EBNA cell membranes expressing human D3. On the procedure: as §1, §2, §3, §4
Data set [3] addresses human D2 receptor (Homo sapiens (Human), UniProt P14416). Described as above. As to conditions: HEK293 EBNA cell membranes expressing human D2. On the procedure:
as §1, §2, §3, §4

Structures are written as SMILES.

human D3 receptor, sequence (P35462 whole entry): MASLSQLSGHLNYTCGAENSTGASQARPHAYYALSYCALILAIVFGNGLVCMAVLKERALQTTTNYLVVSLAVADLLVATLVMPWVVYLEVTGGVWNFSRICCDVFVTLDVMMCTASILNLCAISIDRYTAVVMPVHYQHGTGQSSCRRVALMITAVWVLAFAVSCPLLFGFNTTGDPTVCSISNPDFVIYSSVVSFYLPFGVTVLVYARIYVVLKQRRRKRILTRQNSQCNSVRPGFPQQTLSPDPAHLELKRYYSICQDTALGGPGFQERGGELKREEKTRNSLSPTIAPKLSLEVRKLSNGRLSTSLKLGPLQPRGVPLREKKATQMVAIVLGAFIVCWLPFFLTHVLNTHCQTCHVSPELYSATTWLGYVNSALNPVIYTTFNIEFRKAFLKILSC
human D2 receptor, sequence (P14416 whole entry): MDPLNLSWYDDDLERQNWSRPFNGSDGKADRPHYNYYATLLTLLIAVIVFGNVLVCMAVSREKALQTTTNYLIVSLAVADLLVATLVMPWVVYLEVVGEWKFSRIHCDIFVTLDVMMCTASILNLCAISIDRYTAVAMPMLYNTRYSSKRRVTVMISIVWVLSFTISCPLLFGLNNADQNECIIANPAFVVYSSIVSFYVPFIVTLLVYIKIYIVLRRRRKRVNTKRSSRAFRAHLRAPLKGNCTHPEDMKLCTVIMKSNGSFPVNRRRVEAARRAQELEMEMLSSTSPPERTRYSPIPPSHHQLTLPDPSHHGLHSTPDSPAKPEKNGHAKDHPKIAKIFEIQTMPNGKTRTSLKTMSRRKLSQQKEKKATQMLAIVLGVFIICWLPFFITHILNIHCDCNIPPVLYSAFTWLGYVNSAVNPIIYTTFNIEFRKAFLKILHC
human 5-HT2A receptor, sequence (P28223 whole entry): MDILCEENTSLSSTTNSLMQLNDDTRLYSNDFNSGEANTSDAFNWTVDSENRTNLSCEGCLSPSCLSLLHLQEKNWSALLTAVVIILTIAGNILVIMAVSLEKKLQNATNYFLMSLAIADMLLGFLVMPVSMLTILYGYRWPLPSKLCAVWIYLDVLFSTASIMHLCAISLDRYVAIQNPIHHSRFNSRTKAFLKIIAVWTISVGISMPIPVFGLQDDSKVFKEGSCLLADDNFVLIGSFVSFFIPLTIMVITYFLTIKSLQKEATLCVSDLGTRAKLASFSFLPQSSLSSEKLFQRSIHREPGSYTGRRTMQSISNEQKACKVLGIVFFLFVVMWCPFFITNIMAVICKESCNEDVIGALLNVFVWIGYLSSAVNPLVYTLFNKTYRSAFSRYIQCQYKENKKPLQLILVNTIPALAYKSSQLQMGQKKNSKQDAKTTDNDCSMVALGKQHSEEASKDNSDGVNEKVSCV

For the molecule `COCCC(=O)N[C@H]1CC[C@H](CCN2CCC(c3cccc4c3CCO4)CC2)CC1` [Example 6, trans-N-(4-{2-[4-(2,3-Dihydro-benzofuran-4-yl)-piperidin-1-yl]-ethyl}-cyclohexyl)-3-methoxy-propionamide], the melting point stood at 182 °C. Moreover, in data set [1], the Ki worked out at 38.7 nM. In addition, the Ki in data set [2] was 6.6 nM. Also, in data set [3], the Ki came out at 509 nM.
`O=C(N[C@H]1CC[C@H](CCN2CCC(c3cccc4c3CCO4)CC2)CC1)C1CCOCC1` [Example 7, Tetrahydro-pyran-4-carboxylic acid trans-(4-{2-[4-(2,3-dihydro-benzofuran-4-yl)-piperidin-1-yl]-ethyl}-cyclohexyl)-amide] returned a melting point of 227 °C. Besides, the Ki in data set [1] turned out to be 12.8 nM. In data set [2], the Ki was determined as 22.8 nM. Further, the inhibition constant Ki in data set [3] is 716 nM.
The corresponding values for `O=C(CC1CCOCC1)N[C@H]1CC[C@H](CCN2CCC(c3cccc4c3CCO4)CC2)CC1` [Example 8, trans-N-(4-{2-[4-(2,3-Dihydro-benzofuran-4-yl)-piperidin-1-yl]-ethyl}-cyclohexyl)-2-(tetrahydro-pyran-4-yl)-acetamide] are 191 °C, 38.6 nM, 10.4 nM and 650 nM.
`CCC(=O)N[C@H]1CC[C@H](CCN2CCC(c3cccc4occc34)CC2)CC1` [Example 9, trans-N-{4-[2-(4-Benzofuran-4-yl-piperidin-1-yl)-ethyl]-cyclohexyl}-propionamide] returned a melting point of 170 °C. Further, the Ki in data set [1] stood at 5.6 nM. Further, the Ki in data set [2] was found to be 2.2 nM. The Ki in data set [3] stood at 91.9 nM.
Regarding `COCC(=O)N[C@H]1CC[C@H](CCN2CCC(c3cccc4occc34)CC2)CC1` [Example 10, trans-N-{4-[2-(4-Benzofuran-4-yl-piperidin-1-yl)-ethyl]-cyclohexyl}-2-methoxy-acetamide], the melting point stood at 124 °C. In addition, in data set [1], the inhibitory constant (Ki) was found to be 4.2 nM. In data set [2], the inhibition constant Ki worked out at 10.5 nM. For the same molecule, the inhibition constant (Ki) in data set [3] was found to be 256 nM.
For `CS(=O)(=O)CC(=O)N[C@H]1CC[C@H](CCN2CCC(c3cccc4occc34)CC2)CC1` [Example 11, trans-N-{4-[2-(4-Benzofuran-4-yl-piperidin-1-yl)-ethyl]-cyclohexyl}-2-methanesulfonyl-acetamide], the melting point stood at 201 °C. The inhibition constant (Ki) in data set [1] stood at 5.3 nM. The Ki in data set [2] was found to be 2.3 nM. In data set [3], the Ki was 154 nM.
For `CCC(=O)N[C@H]1CC[C@H](CCN2CCC(c3cccc4c3CCO4)CC2)CC1` [Example 13, trans-N-(4-{2-[4-(2,3-Dihydro-benzofuran-4-yl)-piperidin-1-yl]-ethyl}-cyclohexyl)-propionamide], in that order: 192 °C, 34.3 nM, 4.6 nM and 346 nM.
The corresponding values for `COCC(=O)N[C@H]1CC[C@H](CCN2CCC(c3cccc4c3CCO4)CC2)CC1` [Example 14, trans-N-(4-{2-[4-(2,3-Dihydro-benzofuran-4-yl)-piperidin-1-yl]-ethyl}-cyclohexyl)-2-methoxy-acetamide] are 156 °C, 27.7 nM, 22.7 nM and 671 nM.
Take `CS(=O)(=O)CC(=O)N[C@H]1CC[C@H](CCN2CCC(c3cccc4c3CCO4)CC2)CC1` [Example 15, trans-N-(4-{2-[4-(2,3-Dihydro-benzofuran-4-yl)-piperidin-1-yl]-ethyl}-cyclohexyl)-2-methanesulfonyl-acetamide]: the melting point came to 211 °C. Besides, in data set [1], the Ki is 35.9 nM. The inhibition constant (Ki) in data set [2] turned out to be 4.9 nM. Besides, in data set [3], the Ki amounted to 419 nM.
For `O=C(N[C@H]1CC[C@H](CCN2CCC(c3cccc4c3CCO4)CC2)CC1)c1ccccc1` [Example 17, trans-N-(4-{2-[4-(2,3-Dihydro-benzofuran-4-yl)-piperidin-1-yl]-ethyl}-cyclohexyl)-benzamide], in that order: 220 °C, 11.4 nM, 4.2 nM and 319 nM.
For `O=C(CC(F)(F)F)N[C@H]1CC[C@H](CCN2CCC(c3cccc4c3CCO4)CC2)CC1` [Example 18, trans-N-(4-{2-[4-(2,3-Dihydro-benzofuran-4-yl)-piperidin-1-yl]ethyl}-cyclohexyl)-3,3,3-trifluoro-propionamide], in that order: 197 °C, 34.2 nM, 4.4 nM and 345 nM.
The molecule `Cc1cc(CC(=O)N[C@H]2CC[C@H](CCN3CCC(c4cccc5c4CCO5)CC3)CC2)on1` [Example 19, trans-N-(4-{2-[4-(2,3-Dihydro-benzofuran-4-yl)-piperidin-1-yl]-ethyl}-cyclohexyl)-2-(3-methyl-isoxazol-5-yl)-acetamide] gave a melting point of 188 °C. Moreover, the inhibition constant (Ki) in data set [1] came to 32.9 nM. Besides, the Ki in data set [2] was found to be 2 nM. Further, in data set [3], the Ki was found to be 540 nM.
The corresponding values for `O=C(CO)N[C@H]1CC[C@H](CCN2CCC(c3cccc4c3CCO4)CC2)CC1` [Example 20, trans-N-(4-{2-[4-(2,3-Dihydro-benzofuran-4-yl)-piperidin-1-yl]-ethyl}-cyclohexyl)-2-hydroxy-acetamide] are 154.5 °C, 25.3 nM, 10 nM and 571 nM.
For `CC(C)C(=O)N[C@H]1CC[C@H](CCN2CCC(c3cccc4c3CCO4)CC2)CC1` [Example 23, trans-N-(4-{2-[4-(2,3-Dihydro-benzofuran-4-yl)-piperidin-1-yl]-ethyl}-cyclohexyl)-isobutyramide], in that order: 212 °C, 19.9 nM, 8 nM and 285 nM.
For `CC(C)CC(=O)N[C@H]1CC[C@H](CCN2CCC(c3cccc4c3CCO4)CC2)CC1` [Example 24, trans-N-(4-{2-[4-(2,3-Dihydro-benzofuran-4-yl)-piperidin-1-yl]-ethyl}-cyclohexyl)-3-methyl-butyramide], in that order: 197 °C, 31.1 nM, 5.2 nM and 213 nM.
Turning to `O=C(N[C@H]1CC[C@H](CCN2CCC(c3cccc4c3CCO4)CC2)CC1)C1CCC1` [Example 26, Cyclobutanecarboxylic acid trans-(4-{2-[4-(2,3-dihydro-benzofuran-4-yl)-piperidin-1-yl]-ethyl}-cyclohexyl)-amide], the melting point stood at 197 °C. In data set [1], the Ki worked out at 20.4 nM. Further, the Ki in data set [2] was determined as 8.4 nM. The Ki in data set [3] is 145 nM.
The corresponding values for `O=C(CCO)N[C@H]1CC[C@H](CCN2CCC(c3cccc4c3CCO4)CC2)CC1` [Example 27, trans-N-(4-{2-[4-(2,3-Dihydro-benzofuran-4-yl)-piperidin-1-yl]-ethyl}-cyclohexyl)-3-hydroxy-propionamide] are 158 °C, 61.8 nM, 6.5 nM and 344 nM.
